According to US20220041665A1, “POLYNUCLEOTIDE AND USES THEREOF” (Helsingin yliopisto, priority 2019, published 2022):

Key:
Type in all cases: cell-based, human
[1] = system: A431 cells with tagged DHC1; assay: Analysis of cell division in A431 cells with tagged DHC1
Experimental: Cells were plated on μ-slide 8-well ibiTreat dishes at 0.1×10^5 cells per well 2 days before the experiment. On the experiment day, cells were loaded with 2 μM CellTracker™ Red CMTPX (Thermo, CAT #C34552) in complete medium for 15-30 min at 37° C. Medium was then changed to FluroBrite containing 10% FBS and incubated at 37° C. for 1-2 h before imaging to equilibrate the labelling. Cells were imaged with Nikon Eclipse Ti-E microscope equipped with 20× air objective, Nikon Perfect Focus System 3, Hamamatsu Flash 4.0 V2 scientific CMOS and Okolab stage top incubator system. Before recording, 6 fields for each of the 8 wells were selected with Celllracker™ Red fluorescence. IAA was then added at a final 0.5 mM concentration to IAA-treated cells, mixed well with pipetting, and time lapse imaging started immediately recording every 30 min for 16 h. Mitotic rounding cells were counted manually in the videos from 0.5 h to 6 h. Mitotic rounding cells without cell division were followed till 13 h.

[2] = system: A549 cells with tagged EGFR; assay: EGF uptake in A549 cells with tagged EGFR
Experimental: A549 cells were seeded at 0.4×10^5 cells per 4-well for 3 days. Medium was changed to fresh medium with or without 0.5 mM IAA for 1 h. Cells were washed twice with ice-cold serum free medium with 1% BSA and 0.2 ml of 2 μg/ml Alexa Fluor™ 647 EGF complex (ThermoFisher, E35351) in serum free medium with 1% BSA was added. Cells were further incubated at 37° C. for 20 min before harvesting with trypsin. Samples were kept on ice before FACS analysis. Alexa Fluor™ 647 was excited with 640 nm laser and detected with 720/40 detector, analysing 20 000 cells per sample. Negative control samples were cells incubated in medium without EGF complex. Background subtracted mean fluorescence intensity was used for analysis.

seipin = assay: Depletion of endogenous seipin tagged with mAID-mEGFP in A431 cells expressing OsTIR1; details: cells expressing OsTIR1, no IAA
Chain of seipin (Q96G97+P93830 fused): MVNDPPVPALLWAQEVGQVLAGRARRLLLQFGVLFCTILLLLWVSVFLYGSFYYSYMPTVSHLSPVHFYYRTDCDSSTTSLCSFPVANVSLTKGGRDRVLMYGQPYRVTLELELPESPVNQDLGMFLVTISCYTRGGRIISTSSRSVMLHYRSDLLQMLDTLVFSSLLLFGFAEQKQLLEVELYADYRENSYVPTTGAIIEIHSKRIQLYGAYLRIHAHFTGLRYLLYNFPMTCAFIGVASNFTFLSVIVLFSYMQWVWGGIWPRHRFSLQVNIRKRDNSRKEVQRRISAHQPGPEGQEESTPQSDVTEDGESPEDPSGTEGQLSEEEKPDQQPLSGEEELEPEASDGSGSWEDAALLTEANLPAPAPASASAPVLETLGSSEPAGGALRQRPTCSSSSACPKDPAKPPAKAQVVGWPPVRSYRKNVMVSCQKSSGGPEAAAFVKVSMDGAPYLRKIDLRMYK
Excerpt: Initially seipin, a conserved transmembrane protein in the endoplasmic reticulum (ER) involved in lipid droplet (LD) biogenesis, was targeted for degradation. To rapidly deplete seipin from human A431 cells, an AID system, composed of TIR1 derived from Oryza sativa (OsTIR1) and mAID degron of 65 amino acids corresponding to AAs 68-132 of AtIAA17 (SEQ ID NO: 3), referred herein to as miniAID, was first employed. To this end, the endogenous seipin was homozygously tagged with mAID-mEGFP.

seipin-mEGFP = assay: FACS screen of auxin perceptive proteins and degrons (mean GFP intensity) in A431 cell pools; details: cells expressing AtAFB2 and seipin-mEGFP with degron insertion; 0 h, 1 h, 16 h IAA
Experimental: To search for an improved AID system to solve the issue, a pipeline was first established in human A431 cells to screen AID components (FIG. 2A). Various auxin perceptive proteins and degrons were selected for screening. Several TIR1 and AFB2 proteins from different plant species were tested, as well as degrons derived from AtIAA17 (SEQ ID NO: 3), these including amino acid (aa.) 65-132 (miniAID), aa. 62-109, aa. 71-114. All these degrons were included in the screen. […] These high affinity fragments were tested, assuming higher affinity might translate into more efficient inducible degradation. Degrons with KR dipeptide deletions were tested to see if they would have an effect on enhancing IAA binding affinity, IAA-inducible depletion or as part of a nuclear localization signal. […]
For FACS analysis, cells were seeded at 1:5 (for A431) or 1:3 (for A549) into 6-well plate in medium without selection on day 0. […] Cells were gated with SSC, FSC and trigger pulse width for singlets and 100 000 cells were analyzed for each sample. GFP was excited with 488 nm laser and detected with 530/40 detector; mCherry was excited with 561 nm lasers and detected with 615/20 detector. Data was analyzed with BD FACS Sortware. Background subtracted mean fluorescence intensity was used for analysis.

[3] = control cells without auxin perceptive protein

## O=C(O)Cc1c[nH]c2ccccc12 [IAA, indole-3-acetic acid]
[1]; DHC1-AtAFB2 cells, after IAA addition for 30 min (0.5 mM)
  fraction of mitotic rounding cells that completed cell division: 0%
[1]; [3]
  effect of IAA per se on cell division: did not affect
[2]; EGFR-AtAFB2 cells, 1 h IAA treatment (0.5 mM)
  reduction of EGF uptake: 75%
[2]; [3]
  effect of IAA per se on EGF uptake: did not affect

## miniAID: mAID degron of 65 amino acids corresponding to AAs 68-132 of AtIAA17 (SEQ ID NO: 3)
seipin
  degradation of tagged seipin without IAA addition: severely degraded

## aa.82-101: minimal truncated AtIAA7 degron, aa. 82-101 of SEQ ID NO: 1 (QVVGWPPVRNYRKNMMTQQK; listed as Arabidopsis thaliana)
seipin-mEGFP
  auxin-inducible degradation of truncated AtIAA7 degron: similarly to miniIAA7
